pKd: −log10 of the molar value. *1 amine or outer side, *2 acyl side, *3 side chain or, on linkers, in order; H or OH if unused. Where a SMILES comes first, the peptide text is derived from it. Bridges are numbered along the chain shown (N, C = ends). [ ]: non-standard residue; d: D form. The star is where a group is joined. X22 = O=C([C@H](Cc1ccc(C(F)(F)F)cc1)N(CC1CCCC1)[*:1])[*:2]; hPhe(3-Cl-4-CF3) = N[C@@H](CCc1ccc(C(F)(F)F)c(Cl)c1)C(=O)O; X37 = O=C([C@H](Cc1ccc(C(F)(F)F)cc1)N(CC1CCC1)[*:1])[*:2]; X40 = CC(C)CN([C@@H](Cc1ccc(C(F)(F)F)cc1)C(=O)[*:2])[*:1]; X27 = O=C([C@H](Cc1ccc(C(F)(F)F)cc1)N(CC1CC1)[*:1])[*:2]; X17 = CCCCN([C@@H](Cc1ccc(C(F)(F)F)cc1)C(=O)[*:2])[*:1]; X36 = Cc1ccc(C[C@@H](C(=O)[*:2])N(CCC(F)(F)F)[*:1])cc1; X41 = Cc1ccc(C[C@@H](C(=O)[*:2])N(CC2CCCCC2)[*:1])cc1; X20 = Cc1ccc(C[C@@H](C(=O)[*:2])N(CC2CCCC2)[*:1])cc1; X28 = COCCCN([C@@H](Cc1ccc(C)cc1)C(=O)[*:2])[*:1]; X30 = C=CCCN([C@@H](Cc1ccc(C)cc1)C(=O)[*:2])[*:1]; X10 = C=CCN([C@@H](Cc1ccc(C)cc1)C(=O)[*:2])[*:1]; X35 = COCCN([C@@H](Cc1ccc(C)cc1)C(=O)[*:2])[*:1]; NMeGly(cPent) = CN[C@H](C(=O)O)C1CCCC1; NMeD = CN[C@@H](CC(=O)O)C(=O)O; NMeL = CN[C@@H](CC(C)C)C(=O)O; Morpholide = C1CN(*)CCO1; NMeA = CN[C@@H](C)C(=O)O; Ac5c = NC1(C(=O)O)CCCC1; Aze = O=C(O)[C@@H]1CCN1; Sar = CNCC(=O)O
Experiments:
[1] = target: GDP-bound NRAS wild-type protein (Homo sapiens, UniProt P01111); test: Binding to NRAS by surface plasmon resonance (SPR), Single Cycle Kinetics; conditions: SPR, GDP-bound NRAS wild-type protein vs GDP-bound KRAS wild-type protein
[2] = target: GDP-bound HRAS wild-type protein (Homo sapiens, UniProt P01112); test: Binding to HRAS by surface plasmon resonance (SPR), Single Cycle Kinetics; conditions: SPR, GDP-bound HRAS wild-type protein vs GDP-bound KRAS wild-type protein
[3] = target: GDP-bound KRAS wild-type protein (Homo sapiens, UniProt P01116); test: Binding to KRAS by surface plasmon resonance (SPR), Single Cycle Kinetics; conditions: SPR Single Cycle Kinetics, GDP-bound KRAS wild-type protein, 1:1 binding model; read-out: KRAS KD
GDP-bound KRAS wild-type protein, sequence (P01116 whole entry): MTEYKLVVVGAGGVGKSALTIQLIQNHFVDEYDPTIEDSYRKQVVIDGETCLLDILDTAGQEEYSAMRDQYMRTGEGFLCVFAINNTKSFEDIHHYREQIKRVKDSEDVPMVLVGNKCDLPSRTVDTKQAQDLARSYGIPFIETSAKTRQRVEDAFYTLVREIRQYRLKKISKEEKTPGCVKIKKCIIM

GDP-bound HRAS wild-type protein, sequence (P01112 whole entry): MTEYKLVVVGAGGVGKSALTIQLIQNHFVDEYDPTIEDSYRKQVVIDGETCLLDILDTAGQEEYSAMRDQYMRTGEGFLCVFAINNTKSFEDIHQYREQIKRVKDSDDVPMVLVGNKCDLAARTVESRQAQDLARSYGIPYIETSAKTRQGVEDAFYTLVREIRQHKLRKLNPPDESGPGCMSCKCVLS
GDP-bound NRAS wild-type protein, sequence (P01111 whole entry): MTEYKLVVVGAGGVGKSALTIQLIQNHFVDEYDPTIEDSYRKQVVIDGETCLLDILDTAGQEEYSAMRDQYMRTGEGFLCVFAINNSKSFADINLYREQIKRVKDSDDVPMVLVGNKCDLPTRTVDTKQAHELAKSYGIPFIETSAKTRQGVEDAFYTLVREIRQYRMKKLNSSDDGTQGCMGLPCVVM

Row | SMILES | NRAS/KRAS (ratio of KD value for NRAS to KD value for KRAS) [1] | HRAS/KRAS (ratio of KD value for HRAS to KD value for KRAS) [2] | pKd [3]
1 | CC[C@H](C)[C@@H]1NC(=O)[C@H](CC(C)C)N(C)C(=O)C[C@@H](C(=O)N2CCOCC2)N(C)C(=O)[C@H](C2CCCC2)N(C)C(=O)C2(CCCC2)NC(=O)[C@@H]2CCCN2C(=O)[C@H](CCc2ccc(C(F)(F)F)c(Cl)c2)NC(=O)CN(C)C(=O)[C@H](Cc2ccc(C)cc2)N(CC2CCCC2)C(=O)CN(C)C(=O)CN(C)C1=O [PP0096] ([NMeL]I[Sar][Sar][X20][Sar][hPhe(3-Cl-4-CF3)]P[Ac5c][NMeGly(cPent)][NMeD]-Morpholide; lactam N-11) | C (A compound having a KD ratio of 0.1 or more and less than 3 is denoted as C) | C (A compound having a KD ratio of 0.1 or more and less than 3 is denoted as C) | 8.55
2 | CC[C@H](C)[C@@H]1NC(=O)[C@H](CC(C)C)N(C)C(=O)C[C@@H](C(=O)N2CCOCC2)N(C)C(=O)[C@H](C2CCCC2)N(C)C(=O)C2(CCCC2)NC(=O)[C@@H]2CCCN2C(=O)[C@H](CCc2ccc(C(F)(F)F)c(Cl)c2)NC(=O)CN(C)C(=O)[C@H](Cc2ccc(C)cc2)N(CC2CCCCC2)C(=O)CN(C)C(=O)CN(C)C1=O [PP0097] ([NMeL]I[Sar][Sar][X41][Sar][hPhe(3-Cl-4-CF3)]P[Ac5c][NMeGly(cPent)][NMeD]-Morpholide; lactam N-11) | C (A compound having a KD ratio of 0.1 or more and less than 3 is denoted as C) | C (A compound having a KD ratio of 0.1 or more and less than 3 is denoted as C) | 8.03
3 | C=CCN1C(=O)CN(C)C(=O)CN(C)C(=O)[C@H]([C@@H](C)CC)NC(=O)[C@H](CC(C)C)N(C)C(=O)C[C@@H](C(=O)N2CCOCC2)N(C)C(=O)[C@H](C2CCCC2)N(C)C(=O)C2(CCCC2)NC(=O)[C@@H]2CCCN2C(=O)[C@H](CCc2ccc(C(F)(F)F)c(Cl)c2)NC(=O)CN(C)C(=O)[C@@H]1Cc1ccc(C)cc1 [PP0100] ([NMeL]I[Sar][Sar][X10][Sar][hPhe(3-Cl-4-CF3)]P[Ac5c][NMeGly(cPent)][NMeD]-Morpholide; lactam N-11) | B (a compound having 3 or more and less than 10 is denoted as B) | C (A compound having a KD ratio of 0.1 or more and less than 3 is denoted as C) | 9.72
4 | C=CCCN1C(=O)CN(C)C(=O)CN(C)C(=O)[C@H]([C@@H](C)CC)NC(=O)[C@H](CC(C)C)N(C)C(=O)C[C@@H](C(=O)N2CCOCC2)N(C)C(=O)[C@H](C2CCCC2)N(C)C(=O)C2(CCCC2)NC(=O)[C@@H]2CCCN2C(=O)[C@H](CCc2ccc(C(F)(F)F)c(Cl)c2)NC(=O)CN(C)C(=O)[C@@H]1Cc1ccc(C)cc1 [PP0101] ([NMeL]I[Sar][Sar][X30][Sar][hPhe(3-Cl-4-CF3)]P[Ac5c][NMeGly(cPent)][NMeD]-Morpholide; lactam N-11) | B (a compound having 3 or more and less than 10 is denoted as B) | C (A compound having a KD ratio of 0.1 or more and less than 3 is denoted as C) | 9.80
5 | CC[C@H](C)[C@@H]1NC(=O)[C@H](CC(C)C)N(C)C(=O)C[C@@H](C(=O)N2CCOCC2)N(C)C(=O)[C@H](C2CCCC2)N(C)C(=O)C2(CCCC2)NC(=O)[C@@H]2CCCN2C(=O)[C@H](CCc2ccc(C(F)(F)F)c(Cl)c2)NC(=O)CN(C)C(=O)[C@H](Cc2ccc(C)cc2)N(CCC(F)(F)F)C(=O)CN(C)C(=O)CN(C)C1=O [PP0103] ([NMeL]I[Sar][Sar][X36][Sar][hPhe(3-Cl-4-CF3)]P[Ac5c][NMeGly(cPent)][NMeD]-Morpholide; lactam N-11) | B (a compound having 3 or more and less than 10 is denoted as B) | C (A compound having a KD ratio of 0.1 or more and less than 3 is denoted as C) | 9.82
6 | CC[C@H](C)[C@@H]1NC(=O)[C@H](CC(C)C)N(C)C(=O)C[C@@H](C(=O)N2CCOCC2)N(C)C(=O)[C@H](C2CCCC2)N(C)C(=O)C2(CCCC2)NC(=O)[C@@H]2CCCN2C(=O)[C@H](CCc2ccc(C(F)(F)F)c(Cl)c2)NC(=O)CN(C)C(=O)[C@H](Cc2ccc(C)cc2)N(CCOC)C(=O)CN(C)C(=O)CN(C)C1=O [PP0104] ([NMeL]I[Sar][Sar][X35][Sar][hPhe(3-Cl-4-CF3)]P[Ac5c][NMeGly(cPent)][NMeD]-Morpholide; lactam N-11) | B (a compound having 3 or more and less than 10 is denoted as B) | C (A compound having a KD ratio of 0.1 or more and less than 3 is denoted as C) | 9.60
7 | CC[C@H](C)[C@@H]1NC(=O)[C@H](CC(C)C)N(C)C(=O)C[C@@H](C(=O)N2CCOCC2)N(C)C(=O)[C@H](C2CCCC2)N(C)C(=O)C2(CCCC2)NC(=O)[C@@H]2CCCN2C(=O)[C@H](CCc2ccc(C(F)(F)F)c(Cl)c2)NC(=O)CN(C)C(=O)[C@H](Cc2ccc(C)cc2)N(CCCOC)C(=O)CN(C)C(=O)CN(C)C1=O [PP0105] ([NMeL]I[Sar][Sar][X28][Sar][hPhe(3-Cl-4-CF3)]P[Ac5c][NMeGly(cPent)][NMeD]-Morpholide; lactam N-11) | B (a compound having 3 or more and less than 10 is denoted as B) | C (A compound having a KD ratio of 0.1 or more and less than 3 is denoted as C) | 9.85
8 | CCCCN1C(=O)[C@@H]2CCN2C(=O)[C@H](C)N(C)C(=O)[C@H]([C@@H](C)CC)NC(=O)[C@H](CC(C)C)N(C)C(=O)C[C@@H](C(=O)N2CCOCC2)N(C)C(=O)[C@H](C2CCCC2)N(C)C(=O)C2(CCCC2)NC(=O)[C@@H]2CCCN2C(=O)[C@H](CCc2ccc(C(F)(F)F)c(Cl)c2)NC(=O)CN(C)C(=O)[C@@H]1Cc1ccc(C(F)(F)F)cc1 [PP0106] ([NMeL]I[NMeA][Aze][X17][Sar][hPhe(3-Cl-4-CF3)]P[Ac5c][NMeGly(cPent)][NMeD]-Morpholide; lactam N-11) | C (A compound having a KD ratio of 0.1 or more and less than 3 is denoted as C) | B (a compound having 3 or more and less than 10 is denoted as B) | 9.72
9 | CC[C@H](C)[C@@H]1NC(=O)[C@H](CC(C)C)N(C)C(=O)C[C@@H](C(=O)N2CCOCC2)N(C)C(=O)[C@H](C2CCCC2)N(C)C(=O)C2(CCCC2)NC(=O)[C@@H]2CCCN2C(=O)[C@H](CCc2ccc(C(F)(F)F)c(Cl)c2)NC(=O)CN(C)C(=O)[C@H](Cc2ccc(C(F)(F)F)cc2)N(CC(C)C)C(=O)[C@@H]2CCN2C(=O)[C@H](C)N(C)C1=O [PP0107] ([NMeL]I[NMeA][Aze][X40][Sar][hPhe(3-Cl-4-CF3)]P[Ac5c][NMeGly(cPent)][NMeD]-Morpholide; lactam N-11) | C (A compound having a KD ratio of 0.1 or more and less than 3 is denoted as C) | C (A compound having a KD ratio of 0.1 or more and less than 3 is denoted as C) | 8.77
10 | CC[C@H](C)[C@@H]1NC(=O)[C@H](CC(C)C)N(C)C(=O)C[C@@H](C(=O)N2CCOCC2)N(C)C(=O)[C@H](C2CCCC2)N(C)C(=O)C2(CCCC2)NC(=O)[C@@H]2CCCN2C(=O)[C@H](CCc2ccc(C(F)(F)F)c(Cl)c2)NC(=O)CN(C)C(=O)[C@H](Cc2ccc(C(F)(F)F)cc2)N(CC2CC2)C(=O)[C@@H]2CCN2C(=O)[C@H](C)N(C)C1=O [PP0108] ([NMeL]I[NMeA][Aze][X27][Sar][hPhe(3-Cl-4-CF3)]P[Ac5c][NMeGly(cPent)][NMeD]-Morpholide; lactam N-11) | C (A compound having a KD ratio of 0.1 or more and less than 3 is denoted as C) | C (A compound having a KD ratio of 0.1 or more and less than 3 is denoted as C) | 9.70
11 | CC[C@H](C)[C@@H]1NC(=O)[C@H](CC(C)C)N(C)C(=O)C[C@@H](C(=O)N2CCOCC2)N(C)C(=O)[C@H](C2CCCC2)N(C)C(=O)C2(CCCC2)NC(=O)[C@@H]2CCCN2C(=O)[C@H](CCc2ccc(C(F)(F)F)c(Cl)c2)NC(=O)CN(C)C(=O)[C@H](Cc2ccc(C(F)(F)F)cc2)N(CC2CCC2)C(=O)[C@@H]2CCN2C(=O)[C@H](C)N(C)C1=O [PP0109] ([NMeL]I[NMeA][Aze][X37][Sar][hPhe(3-Cl-4-CF3)]P[Ac5c][NMeGly(cPent)][NMeD]-Morpholide; lactam N-11) | C (A compound having a KD ratio of 0.1 or more and less than 3 is denoted as C) | B (a compound having 3 or more and less than 10 is denoted as B) | 8.89
12 | CC[C@H](C)[C@@H]1NC(=O)[C@H](CC(C)C)N(C)C(=O)C[C@@H](C(=O)N2CCOCC2)N(C)C(=O)[C@H](C2CCCC2)N(C)C(=O)C2(CCCC2)NC(=O)[C@@H]2CCCN2C(=O)[C@H](CCc2ccc(C(F)(F)F)c(Cl)c2)NC(=O)CN(C)C(=O)[C@H](Cc2ccc(C(F)(F)F)cc2)N(CC2CCCC2)C(=O)[C@@H]2CCN2C(=O)[C@H](C)N(C)C1=O [PP0110] ([NMeL]I[NMeA][Aze][X22][Sar][hPhe(3-Cl-4-CF3)]P[Ac5c][NMeGly(cPent)][NMeD]-Morpholide; lactam N-11) | C (A compound having a KD ratio of 0.1 or more and less than 3 is denoted as C) | B (a compound having 3 or more and less than 10 is denoted as B) | 8.40

From patent US20240158446A1, “CYCLIC COMPOUND HAVING SELECTIVE INHIBITORY ACTION ON KRAS OVER HRAS AND NRAS” (CHUGAI SEIYAKU KABUSHIKI KAISHA, priority 2021, published 2024)
